From publication PMC3675115, “Mycobacterium tuberculosis Rv3406 Is a Type II Alkyl Sulfatase Capable of Sulfate Scavenging” (PLoS ONE, 2013) come the findings set out here.

For one assay, the target named is T1, AtsK (Pseudomonas putida, UniProt Q9WWU5).
T1 construct: not described in main text (supplement File S1)
The assay is described as follows: NADH/LADH coupled assay, […] nm. It counts as biochemical. As to conditions: alpha-ketoglutarate, Fe(II), ascorbate; 1 and 10 mM substrate.

The target in the next assay is Rv3406 (Mycobacterium tuberculosis, UniProt P9WKZ1). Description: NADH/LADH coupled assay, […] nm. Type of assay: biochemical. Conditions: co-substrate with 2-EHS, Fe(II), ascorbate, pH 7.5, 25 C.

Structures can show the parent of a compound that is named as a salt.

T1 sequence (Q9WWU5 whole entry): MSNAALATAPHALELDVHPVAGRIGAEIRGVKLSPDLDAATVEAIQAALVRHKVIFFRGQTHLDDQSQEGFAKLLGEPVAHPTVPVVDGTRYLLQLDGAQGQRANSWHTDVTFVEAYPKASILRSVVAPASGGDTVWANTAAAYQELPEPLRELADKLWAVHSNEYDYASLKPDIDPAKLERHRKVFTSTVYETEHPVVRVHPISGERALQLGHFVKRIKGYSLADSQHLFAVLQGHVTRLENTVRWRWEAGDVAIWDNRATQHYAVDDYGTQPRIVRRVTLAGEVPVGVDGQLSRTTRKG

Regarding `CCCCC(CC)COS(=O)(=O)O` (centres unmarked) [2-ethylhexyl sulfate], the “NADH/LADH coupled assay, 340 nm” value at AtsK is “we also tested AtsK and found 2-EHS was its preferred substrate as well”.
With `O=C(O)CCC(=O)C(=O)O` [α-ketoglutarate], the “NADH/LADH coupled assay, 340 nm” value on Rv3406 was “Rv3406’s activity on 2-EHS is dependent on the cosubstrate αKG”.
